Test results taken from patent publication EP4755888A1 (ILAb Co., Ltd., priority 2023, dated 2025).

The compounds below were run against PD-1/PD-L1 (Homo sapiens, UniProt Q9NZQ7) (assay: TR-FRET PD-1/PD-L1 binding inhibition at the molecular level (free proteins)). Conditions: Tag1-PD-L1 and Tag2-PD-1 proteins, twelve concentrations from 200 nM, 2 hours at room temperature, read-out: FRET assay (IC50).
How it was run: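 HTRF read-out at 665/620 nm after 2 h at room temperature. Detection used anti-Tag1 Eu cryptate plus anti-Tag2 XL665 antibodies. Tagged PD-L1 and PD-1 proteins were pre-mixed with compound across twelve […] 1:2 dilutions starting at 200 nM.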

PD-1/PD-L1, sequence (Q9NZQ7 19-238 limits assumed): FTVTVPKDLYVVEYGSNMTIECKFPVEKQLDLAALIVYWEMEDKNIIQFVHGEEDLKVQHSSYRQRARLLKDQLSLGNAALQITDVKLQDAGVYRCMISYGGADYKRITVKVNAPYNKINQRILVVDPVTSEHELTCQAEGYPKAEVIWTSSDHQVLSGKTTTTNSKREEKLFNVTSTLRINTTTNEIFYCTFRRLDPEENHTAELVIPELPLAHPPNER

Row | IC50 [nM] | Structure (SMILES)
1 | < 10 | COc1cc(-c2cccc(-c3cccc(NC(=O)c4cc5n(n4)CCCC5N4CC[C@@H](O)C4)c3Cl)c2Cl)cc(F)c1CNC(C)(C)C(=O)O (stereo partly drawn) [Compound 128, 2-(((2',2"-dichloro-3-fluoro-3"-(4-((R)-3-hydroxypyrrolidin-1-yl)-4,5,6,7-tetrahydropyrazolo[1,5-a]pyridine-2-carboxamido)-5-methoxy-[1,1':3',1"-terphenyl]-4-yl)methyl)amino)-2-methylpropanoic acid]
2 | < 10 | COc1cc(C(=O)Nc2cccc(-c3cccc(NC(=O)c4cc5n(n4)CCCC5NCC(=O)O)c3Cl)c2Cl)cc(F)c1CNCCO (stereo not drawn) [Compound 190, 2-((2-((2,2'-dichloro-3'-(3-fluoro-4-(((2-hydroxyethyl)amino)methyl)-5-methoxybenzamido)-[1,1'-biphenyl]-3-yl)carbamoyl)-4,5,6,7-tetrahydropyrazolo[1,5-a]pyridin-4-yl)amino)acetic acid]
3 | < 10 | Cc1c(NC(=O)c2ccc(CNCCO)cn2)cccc1-c1cccc(NC(=O)c2cc3n(n2)CCCC3N2CC[C@@H](C(=O)O)C2)c1C (stereo partly drawn) [Compound 77, (3R)-1-(2-((3'-(5-(((2-hydroxyethyl)amino)methyl)picolinamido)-2,2'-dimethyl-[1,1'-biphenyl]-3-yl)carbamoyl)-4,5,6,7-tetrahydropyrazolo[1,5-a]pyridin-4-yl)pyrrolidine-3-carboxylic acid]
4 | < 10 | COc1cc(-c2cccc(-c3cccc(NC(=O)c4cc5n(n4)CCCC5O)c3C)c2C)cc(F)c1CNCCO (stereo not drawn) [Compound 114, N-(3"-fluoro-4"-(((2-hydroxyethyl)amino)methyl)-5"-methoxy-2,2'-dimethyl-[1,1':3',1 "-terphenyl]-3-yl)-4-hydroxy-4,5,6,7-tetrahydropyrazolo[1,5-a]pyridine-2-carboxamide]
5 | < 10 | Cc1c(NC(=O)c2ccc(CNCCO)cn2)cccc1-c1cccc(NC(=O)c2cc3n(n2)CCCC3NCC2CCC(=O)N2)c1C (stereo not drawn) [Compound 75, N-(3'-(5-(((2-hydroxyethyl)amino)methyl)picolinamido)-2,2'-dimethyl-[1,1'-biphenyl]-3-yl)-4-(((5-oxopyrrolidin-2-yl)methyl)amino)-4,5,6,7-tetrahydropyrazolo[1,5-a]pyridine-2-carboxamide]
6 | < 10 | O=C(Nc1cccc(-c2cccc(NC(=O)c3cc4n(n3)CCCC4N3CC[C@@H](C(=O)O)C3)c2Cl)c1Cl)c1ccc(CNCCO)c(F)n1 (stereo partly drawn) [Compound 199, (3R)-1-(2-((2,2'-dichloro-3'-(6-fluoro-5-(((2-hydroxyethyl)amino)methyl)picolinamido)-[1,1'-biphenyl]-3-yl)carbamoyl)-4,5,6,7-tetrahydropyrazolo[1,5-a]pyridin-4-yl)pyrrolidine-3-carboxylic acid]
7 | < 10 | COc1cc(-c2cccc(-c3cccc(NC(=O)c4cc5n(n4)CCCC5NCC(=O)O)c3Cl)c2Cl)cc(F)c1CN1CC[C@@H](O)C1 (stereo partly drawn) [Compound 187, 2-((2-((2,2'-dichloro-3"-fluoro-4"-(((R)-3-hydroxypyrrolidin-1-yl)methyl)-5"-methoxy-[1,1':3',1"-terphenyl]-3-yl)carbamoyl)-4,5,6,7-tetrahydropyrazolo[1,5-a]pyridin-4-yl)amino)acetic acid]
8 | < 10 | O=C(O)CN1CCn2nc(C(=O)Nc3cccc(-c4cccc(Nc5nccc6cc(CN7CC[C@@H](O)C7)cnc56)c4Cl)c3Cl)cc2C1 [Compound 324, (R)-2-(2-((2,2'-dichloro-3'-((3-((3-hydroxypyrrolidin-1-yl)methyl)-1,7-naphthyridin-8-yl)amino)-[1,1'-biphenyl]-3-yl)carbamoyl)-6,7-dihydropyrazolo[1,5-a]pyrazin-5(4H)-yl)acetic acid]
9 | 10 to 100 | O=C(Nc1cccc(-c2cccc(Nc3nc(C(F)F)nc4cccnc34)c2Cl)c1Cl)c1cc2n(n1)CCC[C@@H]2N1CCC(O)CC1 [Compound 305, (S)-N-(2,2'-dichloro-3'-((2-(difluoromethyl)pyrido[3,2-d]pyrimidin-4-yl)amino)-[1,1'-biphenyl]-3-yl)-4-(4-hydroxypiperidin-1-yl)-4,5,6,7-tetrahydropyrazolo[1,5-a]pyridine-2-carboxamide]
